Results on six molecules are retold here after patent publication US6869951B1, “Method of changing conformation of a matrix metalloproteinase” (Pharmacia Corporation, priority 1999, dated 2005).

Structures can show the parent of a compound that is named as a salt.

Series [1] deals with T1, MMP-8 catalytic domain (residues 85-242) (Homo sapiens, UniProt P22894).
T1 construct: The catalytic domain (residues 85-242) of MMP-8, neutrophil collagenase, folds into a compact globular structure; made in house
The series is described as follows: X-ray crystallography of MMP-8 catalytic domain inhibitor complexes. The settings on record: X-ray crystal structure of the complex, IX, XI relative to compound XII. The source says:
The MMP-8 catalytic domain was cloned by PCR amplification from a cDNA contruct of full-length MMP-8. The amplified DNA was cloned into NdeI/HindIII restriction sites in an in-house pRec expression vector. Protein was expressed in a bacterial expression system by induction with nalidixic acid. Recombinant protein was expressed primarily as inclusion bodies. Purified protein was recovered in high yield following ion exchange chromatography of denatured protein.
Slow dehydration of the drop leads to formation of single crystals of the inhibitor complex. Details are below.
12 mg/ml MMP-8 in 10 mM MES pH 6.0, 100 mM NaCl, 5 mM CaCl2 pre-incubated with 1 mM inhibitor for 10 minutes at ambient temperature.
4 ul of the protein-inhibitor complex mixed with 6.8 ul 10% PEG6000 and 0.2 M MES pH 6.0
0.8 to 2.5 M sodium/potassium phosphate pH 6.0 (not mixed with protein/inhibitor/PEG drop).
Intensities from crystals of the enzyme inhibitor complexes were measured on a MAR image plate at −140° C. X-rays were generated from a rotating anode generator using a Cu target. The CuKα X-rays were focused onto the samples using long Pt and Ni mirrors.
The data were integrated and scaled using the program DENZO (Otwinowski, Z. and Minor W. in Proceedings of CCP4 Study Weekend: Data Collection and Processing (eds. Sawyer, L., Issacs, N., and Bailey, S.) pp. 56-62 (SERC Daresbury Laboratories, Warrington, UK 1993)).
Standard simulated annealing protocols in the program XPLOR (Brünger, A. T. (1993). XPLOR (Version 3.1): A System for X-ray Crystallography and NMR (Yale University Press, New Haven, Conn.)) were used.
New electron density at the expected active site could in all cases be interpreted with flexible, three-dimensional models of the inhibitors as generated in the program […] (Biosym Technologies (1993). Insight II User Guide, Version 2.2.0. San Diego). Solvent positions were also identified from these electron density maps and side chains of the protein were also sometimes manually adjusted.
Final refinements of the structure were carried out with inclusion of inhibitor and solvent ligands. In the refinements, 10% of the data was set aside for cross validation by evaluation of Rfree (A. T. Brünger, “Free R Value: a novel statistical quantity for accessing the accuracy of crystal structures,” Nature 355, 472-475 (1992)).

The conditions of series [2]: clinical trials in cancer patients; cited from earlier work.
Another series concerns cancer-specific antigens. The settings on record: meta analysis of Phase I/II studies; advanced, treatment-refractory solid tumor cancers (colorectal, pancreatic, ovarian, prostate); cited from earlier work.

T1 sequence (P22894 105-262): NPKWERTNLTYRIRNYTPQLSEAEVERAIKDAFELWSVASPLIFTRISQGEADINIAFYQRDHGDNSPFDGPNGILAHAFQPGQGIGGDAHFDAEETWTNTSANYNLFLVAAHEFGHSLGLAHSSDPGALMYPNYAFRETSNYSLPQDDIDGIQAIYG

On to `CCCCCc1ccc(C(=O)Nc2ccc(S(=O)(=O)N(CCN3CCOCC3)[C@@H](C(=O)O)C(C)C)cc2)cc1` [IX, N-[2-(4-morpholinyl)ethyl]-N-[[4-[(4-pentylbenzoyl)amino]phenyl]sulfonyl]-D-valine], for which the “effect on conformation of the amino acid backbone of the S1' pocket of MMP-8” value (“effect on conformation” below) in series [1] is given as “causes the backbone to deform significantly”. Turning to `CCCc1ccc(C(=O)Nc2ccc(S(=O)(=O)N[C@@H](C(=O)O)C(C)C)cc2)cc1` [XII], the “effect on conformation” value in series [1] was “essentially no effect on the conformation of the amino acid backbone”.

As for `CNC(=O)[C@@H](NC(=O)[C@H](CC(C)C)[C@H](O)C(=O)NO)C(C)(C)C` [marimastat], the “most common drug-related toxicity” value in series [2] is “musculoskeletal pain and stiffness”. Moreover, the “effect on rise of cancer-specific antigens used as surrogate markers for biological activity” value in the series with cancer-specific antigens is recorded as “dose-related reduction in the rise of cancer-specific antigens”. For `CCCCCc1ccc(C(=O)Nc2ccc(S(=O)(=O)N(CCN3CCOCC3)[C@@H](C(=O)NO)C(C)C)cc2)cc1` [Compound X, R-N-[4-[[[1-(hydroxyamino)carbonyl]-2-methylpropyl][2-(4-morpholinyl)ethyl]amino]-sulfonyl]phenyl]-4-pentylbenzamide, monohydrochloride], the “effect on conformation” value in series [1] was “causes the backbone to deform significantly”. Same read-out and setting: the entry for `CCCCCCc1ccc(C(=O)Nc2ccc(S(=O)(=O)N(CCN3CCOCC3)[C@@H](C(=O)NO)C(C)C)cc2)cc1` [Compound XI, (R)-4-hexyl-N-[4-[[[1-(hydroxyamino)-carbonyl]-2-methylpropyl][2-(4-morpholinyl)ethyl]amino]sulfonyl]-phenylbenzamide, monohydrochloride] is “causes the backbone to deform significantly”; for `CC(O)(CS(=O)(=O)c1ccc(Oc2ccccc2)cc1)C(=O)NO` (stereo not shown) [Compound XIV, reference compound] it is “essentially no effect on the conformation of the amino acid backbone”.
